# Results published in paper PMC8453848, “Effect of GLPG1205, a GPR84 Modulator, on CYP2C9, CYP2C19, and CYP1A2 Enzymes: In Vitro and Phase 1 Studies” (Clinical Pharmacology in Drug Development, 2021).
# Several values for one entry are separate records, joined by “and”; a condition that tells them apart may be missing. Equal values may be shown once. Read-outs that look alike come from different tables or passages of the source.
# Assays:
# [1] = Phase 1 drug-drug interaction study: safety and tolerability (adverse events)
# Description: The safety assessment was based on adverse events (AEs), vital signs, 12‐lead electrocardiogram (ECG), physical examinations, and safety laboratory tests. AEs were monitored for the duration of the study. All safety assessments were undertaken at the screening visit, on days 13 and 14, and at the follow‐up visit. In addition, safety assessments were undertaken on day 1 (vital signs, 12‐lead ECG, and clinical laboratory tests) and day 7 (physical examination, vital signs, and clinical laboratory tests).
# The safety population comprised all randomized subjects who received at least 1 dose of study drug.
# [2] = target: CYP2C9 (Homo sapiens, UniProt P11712); test: CYP2C9 inhibition, tolbutamide methylhydroxylase assay in human liver microsomes; assay type: in vitro ADME; parameters: from tissue; host or cells: in vivo, 14 healthy male subjects; settings: for IC50: estimated
# Experimental: Inhibition of the biotransformation of CYP‐specific substrates by GLPG1205 was studied using human liver microsomes. Incubation was performed at 37°C with the following conditions: n = 3 for all assays; 0.1 M phosphate buffer (pH 7.4), the cofactor nicotinamide adenine dinucleotide phosphate (NADPH) incubated at 2 mM, the CYP‐specific substrate incubated at 1 nonsaturating concentration, and GLPG1205. Additional incubation was performed with (1) a 30‐minute preincubation step of GLPG1205 with microsomes before the addition of the cofactor NADPH and CYP substrate; and (2) a 30‐minute preincubation step of GLPG1205 with microsomes and the cofactor NADPH, before the addition of the CYP substrate. […] The CYP‐specific substrates were incubated per the above conditions at the following concentrations: tolbutamide, 200 μM, CYP2C9 substrate; S‐mephenytoin, 60 μM, CYP2C19 substrate; phenacetin, 40 μM, CYP1A2 substrate.
# Further details of the assays used for each CYP substrate are reported in the Supplemental Methods. Metabolites of the CYP‐specific substrates (acetaminophen for CYP1A2, hydroxytolbutamide for CYP2C9, hydroxymephenytoin for CYP2C19) were quantified using LC‐MS/MS.
# Enzymatic activity in the presence of GLPG1205 was expressed as a percentage of the control activity obtained with the vehicle only (ie, without GLPG1205 or reference inhibitor). Decreases in activity of less than 20% were not considered clinically relevant.
# Protocol for CYP Inhibition of the biotransformation of CYP-specific substrates by GLPG1205 was studied using human liver microsomes.^7 Incubations were performed at 37°C with the following conditions: n = 3 for all assays; 0.1 M phosphate buffer pH 7.4; the cofactor β-nicotinamide adenine dinucleotide phosphate (NADPH) incubated at 2 mM; the CYP-specific substrate incubated at one non-saturating concentration; and GLPG1205. Additional incubations were performed with: 1) a 30-minute preincubation step of GLPG1205 with microsomes before addition of the cofactor NADPH and CYP substrate; and 2) a 30-minute preincubation step of GLPG1205 with microsomes and the cofactor NADPH, before addition of the CYP substrate.
# The CYP-specific substrates were incubated at the following conditions: tolbutamide (200 µM; CYP2C9); S-mephenytoin (60 µM; CYP2C19); phenacetin (40 µM; CYP1A2).^8-10 Reference inhibitors (as detailed in the previous section) were incubated in parallel. […]
# A 2-fold dilution in D9-OH-tolbutamide at 1 µM in water with 0.1% formic acid was applied to the supernatants and then analysis was performed by LC-MS/MS with chromatographic separation. […] The quantification of the metabolite, hydroxytolbutamide, was performed in MRM mode using the 287.1 to 89.2 transition. […]
# [3] = GLPG1205 100 mg once a day + CYP450 substrates, n = 14
# [4] = GLPG1205 100 mg once a day alone, n = 14
# Sequence of CYP2C9 (P11712 whole entry): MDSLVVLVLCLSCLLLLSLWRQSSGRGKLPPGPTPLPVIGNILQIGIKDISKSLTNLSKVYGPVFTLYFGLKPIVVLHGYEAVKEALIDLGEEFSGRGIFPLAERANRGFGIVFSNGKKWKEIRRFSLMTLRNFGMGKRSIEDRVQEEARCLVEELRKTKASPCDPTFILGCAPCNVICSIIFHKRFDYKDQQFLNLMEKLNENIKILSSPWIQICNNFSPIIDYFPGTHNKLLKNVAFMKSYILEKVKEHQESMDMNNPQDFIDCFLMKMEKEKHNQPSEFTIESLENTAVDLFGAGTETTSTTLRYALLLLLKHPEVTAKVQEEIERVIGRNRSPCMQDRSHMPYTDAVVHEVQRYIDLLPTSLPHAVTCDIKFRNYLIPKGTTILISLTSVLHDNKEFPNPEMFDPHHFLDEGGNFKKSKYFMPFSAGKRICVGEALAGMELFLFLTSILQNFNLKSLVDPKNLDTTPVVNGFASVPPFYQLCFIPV
compound,measurement,setting,value
"O=c1nc(OC[C@@H]2COCCO2)cc2n1CCc1cc(C#CC3CC3)ccc1-2 [GLPG1205, 9‐cyclopropylethynyl‐2‐[(S)‐1‐(1,4)dioxan‐2‐ylmethoxy]‐6,7‐dihydropyrimido[6,1‐a]isoquinolin‐4‐one]",Any TEAE,[1]; [3],3 (21.4) n (%)
same,Gastrointestinal disorders,[1]; [3],0 n (%)
same,General disorders and general administration‐site conditions,[1]; [3],0 n (%)
same,Headache,[1]; [3],1 (7.1) n (%)
same,Influenza‐like illness,[1]; [3],0 n (%)
same,Musculoskeletal and connective tissue disorders,[1]; [3],1 (7.1) n (%)
same,Myalgia,[1]; [3],1 (7.1) n (%)
same,Nausea,[1]; [3],0 n (%)
same,Nervous system disorders,[1]; [3],1 (7.1) n (%)
same,Oropharyngeal pain,[1]; [3],1 (7.1) n (%)
same,Pain,[1]; [3],0 n (%)
same,"Respiratory, thoracic, and mediastinal disorders",[1]; [3],1 (7.1) n (%)
same,Any TEAE,[1]; [4],9 (64.3) n (%)
same,Back pain,[1]; [4],0 n (%)
same,Disturbance in attention,[1]; [4],2 (14.3) n (%)
same,Eye disorders,[1]; [4],1 (7.1) n (%)
same,Fatigue,[1]; [4],1 (7.1) n (%)
same,Flatulence,[1]; [4],1 (7.1) n (%)
same,Flushing,[1]; [4],1 (7.1) n (%)
same,Gastroenteritis,[1]; [4],1 (7.1) n (%)
same,Gastrointestinal disorders,[1]; [4],1 (7.1) n (%)
same,General disorders and general administration‐site conditions,[1]; [4],1 (7.1) n (%)
same,Headache,[1]; [4],5 (35.7) n (%)
same,Hyperhidrosis,[1]; [4],0 n (%)
same,Infections and infestations,[1]; [4],1 (7.1) n (%)
same,Lacrimation increased,[1]; [4],1 (7.1) n (%)
same,Musculoskeletal and connective tissue disorders,[1]; [4],1 (7.1) n (%)
same,Myalgia,[1]; [4],1 (7.1) n (%)
same,Nasopharyngitis,[1]; [4],0 n (%)
same,Nervous system disorders,[1]; [4],8 (57.1) n (%)
same,Oropharyngeal pain,[1]; [4],1 (7.1) n (%)
same,Paresthesia,[1]; [4],1 (7.1) n (%)
same,Presyncope,[1]; [4],1 (7.1) n (%)
same,Rash,[1]; [4],0 n (%)
same,"Respiratory, thoracic, and mediastinal disorders",[1]; [4],1 (7.1) n (%)
same,Skin and subcutaneous tissue disorders,[1]; [4],0 n (%)
same,Vascular disorders,[1]; [4],1 (7.1) n (%)
same,Vision blurred,[1]; [4],0 n (%)
same,"moderate presyncope, subjects",[1]; GLPG1205 alone,1 n
same,"moderate oropharyngeal pain, subjects",[1]; GLPG1205 plus CYP450 substrates,1 n
same,deaths or serious AEs,[1]; during the study,no deaths or serious AEs
same,"laboratory safety tests, ECG, vital signs, physical examination",[1]; during the study,No clinically significant trends or abnormalities
same,inhibition of CYP2C9 in words,[2]; GLPG1205 50‐100 μM,moderate and reversible
same,IC50,"[2]; human liver microsomes, read-out: IC50 for inhibition of CYP2C9",~50 µM and ≥ 50 µM
same,IC50,"[2]; equivalent of ≥50 μM, read-out: IC50 for inhibition of CYP2C9, equivalent",≥ 49.9 µM
same,inhibition at 20 min,"[2]; human, liver microsomes, pH 7.4, probe tolbutamide 200 µM, GLPG1205 50‐100 μM without preincubation, tolbutamide 200 μM",49 to 56.9%
